In US20220071970A1, “QUINUCLIDINE-3-ONE DERIVATIVES AND THEIR USE IN CANCER TREATMENT” (Aprea Therapeutics AB, priority 2018, published 2022):
pIC50: −log10 of the molar value.

Columns and labels:
[1] = test system: SaOS-2 His273 mtp53 human osteosarcoma cell line; experiment: In vitro efficacy study using the SaOS-2 His273 protocol (CellTiter-Glo viability, 72 h); format: cell-based; conditions: SAOS-2, growth suppression, 72 hours incubation, CellTiter-Glo, read-out: SaOS-2 His273 IC50
Experimental: SaOS-2 His273 mtp53 is a human osteosarcoma cell line which has been genetically engineered at OnkPat CCK to express His273 mutated p53.
3000 cells/well (50 μl) were seeded into masked (black or white with clear bottom) 96-well cell culture plates using Iscove's Modified Dulbecco's Medium supplemented with 10% heat inactivated (56° C. for 60 min) fetal calf serum. The plates were then incubated for 4 hours, allowing the cells to attach. The test compounds were dissolved in DMSO or water to a concentration of 0.01 M and then further diluted to desired concentrations using the cell medium. 50 μl of freshly diluted test compound from fresh stock was added to the wells. The plates were then incubated for 72 hours.
For viability detection, CellTiter-Glo® Luminescent Cell Viability Assay (CTG) was used. CTG is a homogeneous “add-mix-measure” format method of determining the number of viable cells in culture based on quantitation of the ATP present, an indicator of metabolically active cells. The luminescence was measured using the PerkinElmer Victorx4 instrument.
The average of the signal values for the untreated cells was calculated for each plate. The % of growth suppression was calculated as:
100−((Signal sample/Signal untreated cells)×100).
The results of the SaOs-2 His273 analyses were expressed as IC50 values, i.e. concentration that suppresses growth of at least 50% of the cells. The IC50 values of various compounds according to the invention and of some comparative compounds are shown in Table 1, Table 2, Table 3 and Table 4.

[2] = test system: MDA-MB-231-Luc human breast cancer cell line carrying mutant p53 (R280K); experiment: In vivo efficacy study, orthotopic MDA-MB-231-Luc breast cancer xenograft in nude mice; set-up: species or system nude mice (Hsd:AthymicNude-Foxnlnu); conditions: 42 or 125 mg/kg intraperitoneally twice daily, 3 cycles of 5 days, compared to control animals
Experimental: A: Luciferase luminescence from mice xenografted with MDA-MB-231-Luc breast cancer cells. B: Tumor weight at day 33 after beginning of treatment.
The compound of Example 4 was administered intraperitoneally twice daily at 42 or 125 mg/kg to nude mice (Hsd:AthymicNude-Foxnlnu) ortotopically xenografted with the human breast cancer cell line MDA-MB-231-Luc, carrying mutant p53 (R280K). To make MDA-MB-231-Luc, the cell line MDA-MB-231 was stably transfected with a synthetic gene for firefly luciferase, Luc2 (pGL4, Promega). Thereby, the tumor load may be externally monitored by luminescence measurement (radiance values; photon/second/cm^2/steradian). 5×10^6 MBA-MB-231-luc cells were injected, and eight days later the animals were stratified into treatment groups and control, 8 animals in each group, based on luminescence measurement. Treatment was started on day 11 and done in 3 cycles of 5 days each, with 2 days recovery. Tumor progression was evaluated by non-invasive in vivo imaging during the second cycle (day 18) and at the end of treatment (day 32). On day 33, the animals were sacrificed and the tumors excised and weighed.

In the case of O=C1C2CCN(CC2)C1CNC(=O)C(F)(F)F (racemic) [Example 4, 2,2,2-trifluoro-N-((3-oxoquinuclidin-2-yl)methyl)acetamide], the pIC50 [1] was 5.25, the “tumor cell migration as measured by radiance of luminescence (FIG. 1A)” value ([2]; imaging day 18 and day 32) was “reduced tumor cell migration compared to control animals” and the “tumor weight (FIG. 1B)” value ([2]; tumors excised day 33) was “reduced tumor weight compared to control animals”.
